Patent US12533394B2, “Compositions and methods for treating metabolic disorders” (GlycoMantra Inc., priority 2023, dated 2026)

Key:
[1] = target: T1, Gal3 (Homo sapiens, UniProt P17931); details: Table 1, comparison galectin antagonists; cited from earlier work
[2] = target: T1, Gal3; test: Solid-phase assay, blocking Gal3 binding (inhibition curves, FIG. 2)
Text: For the purposes of this disclosure, an “inhibition curve” is a graphical representation used in pharmacology and biochemistry to show how an inhibitor affects the activity of an enzyme, a biological process, or the like. Typically, an inhibition curve plots the concentration of an inhibitor on the x-axis and the corresponding reduction in an enzyme activity (or another measurable response) on the y-axis. An inhibition curve may help visualize the relationship between inhibitor concentration and its effectiveness. As a nonlimiting example, an inhibition curve may be used to determine a half-maximal inhibitory concentration or IC50 value. For the purposes of this disclosure, half-maximal inhibitory concentration or IC50 is the concentration of an inhibitor needed to reduce the activity of a receptor or an enzyme by 50%. A small IC50 value typically indicates a stronger binding affinity between an inhibitor and its target, and vice versa. IC50 is a commonly used indication regarding a drug's efficacy and potency and is often used in pharmacological research. For the purposes of this disclosure, drug potency is the amount of a drug needed to produce a given effect. […] It is often measured using the EC50, i.e., the concentration at which 50% of the maximum effect is observed. […]

T1 sequence (P17931 whole entry, species assumed): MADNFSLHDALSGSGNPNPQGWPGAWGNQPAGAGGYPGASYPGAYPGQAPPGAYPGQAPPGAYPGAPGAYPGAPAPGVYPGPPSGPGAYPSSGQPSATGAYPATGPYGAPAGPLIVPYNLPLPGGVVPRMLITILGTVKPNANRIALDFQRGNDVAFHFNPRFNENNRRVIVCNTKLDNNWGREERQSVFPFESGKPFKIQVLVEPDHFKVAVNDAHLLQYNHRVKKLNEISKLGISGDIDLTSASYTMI

SMILES | Specificity to Gal3 [1] | IC50 [2]
OC[C@H]1O[C@@H](S[C@@H]2O[C@H](CO)[C@H](O)[C@H](n3cc(-c4cccc(F)c4)nn3)[C@H]2O)[C@H](O)[C@@H](n2cc(-c3cccc(F)c3)nn2)[C@H]1O [TD139] | No | 
CC(=O)N[C@H]1C(O)O[C@H](CO)[C@H](O)[C@@H]1O[C@@H]1O[C@H](CO)[C@H](O)[C@H](O)[C@H]1O (some centres unmarked) [synthetic TFD, Galβ1-3GalNAc] |  | 200 µM
